Results reported in ChEMBL document CHEMBL1201862, “PubChem BioAssay data set” (2004).
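Compound exposure: 48 hours, 5 concentrations, 96-well plates. Abbreviation: GI50, concentration required for 50% inhibition of growth.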 The source made the active and inactive calls. Cut-off read from the data, not from the text of the source: active = GI50 up to about 1.1 µM and inactive = higher.

Legend:
Test in all cases: inhibition of tumour cell growth, NCI panel, 48 h
BT-549 = tested on: BT-549
CAKI-1 = tested on: CAKI-1
EKVX = tested on: EKVX
HCC 2998 = tested on: HCC 2998
KM12 = tested on: KM12
LOX IMVI = tested on: LOX IMVI
M14 = tested on: M14
MDA-MB-435 = tested on: MDA-MB-435
NCI-H23 = tested on: NCI-H23
NCI-H522 = tested on: NCI-H522
OVCAR-5 = tested on: OVCAR-5
SF-295 = tested on: SF-295
SF-539 = tested on: SF-539
SK-MEL-28 = tested on: SK-MEL-28
SK-MEL-2 = tested on: SK-MEL-2
SK-OV-3 = tested on: SK-OV-3
HCT-15 = tested on: HCT-15
A498 = tested on: A498

SMILES | GI50 (BT-549) | GI50 (CAKI-1) | GI50 (EKVX) | GI50 (HCC 2998) | GI50 (KM12) | GI50 (LOX IMVI) | GI50 (M14) | GI50 (MDA-MB-435) | GI50 (NCI-H23) | GI50 (NCI-H522) | GI50 (OVCAR-5) | GI50 (SF-295) | GI50 (SF-539) | GI50 (SK-MEL-28) | GI50 (SK-MEL-2) | GI50 (SK-OV-3) | GI50 (HCT-15) [µM] | GI50 (A498)
CN1Cc2cc(O)c(O)cc2C(O)C1 (stereo not given) | > 100 µM (inactive) | > 100 µM (inactive) | > 100 µM (inactive) | > 100 µM (inactive) | > 100 µM (inactive) | 69.2 µM (inactive) | > 100 µM (inactive) | 82.6 µM (inactive) | > 100 µM (inactive) | 49.3 µM (inactive) | > 100 µM (inactive) | > 100 µM (inactive) | > 100 µM (inactive) | > 100 µM (inactive) | > 100 µM (inactive) | > 100 µM (inactive) |  | 
O=C1/C(=C/c2cccc([N+](=O)[O-])c2)CCCc2ccccc21 | 12.5 µM (inactive) | 16.5 µM (inactive) | 16 µM (inactive) | 10.3 µM (inactive) | 2.42 µM (inactive) | 3.4 µM (inactive) | 13.8 µM (inactive) | 9.66 µM (inactive) | 15.8 µM (inactive) | 4.74 µM (inactive) | 13.3 µM (inactive) | 14.6 µM (inactive) | 15.3 µM (inactive) | 15.3 µM (inactive) | 11 µM (inactive) | 29.4 µM (inactive) | 10.6 | 
CCOC(=O)c1c(SCc2ccccc2)nc2c3ccccc3ccn12 |  | > 100 µM (inactive) | > 100 µM (inactive) | > 100 µM (inactive) | > 100 µM (inactive) | > 100 µM (inactive) | > 100 µM (inactive) | > 100 µM (inactive) | > 100 µM (inactive) | 37.2 µM (inactive) | > 100 µM (inactive) | 40.7 µM (inactive) | 79.4 µM (inactive) | > 100 µM (inactive) | > 100 µM (inactive) | 52.7 µM (inactive) | > 100 | 54.5 µM (inactive)
CS(=O)(=O)c1nc(-c2cc3c(c(S(C)(=O)=O)n2)CCC3)cc2c1CCCCC2 | 20.5 µM (inactive) | 21 µM (inactive) | > 100 µM (inactive) | > 100 µM (inactive) | > 100 µM (inactive) | > 100 µM (inactive) | > 100 µM (inactive) | > 100 µM (inactive) | 41.4 µM (inactive) | 15.2 µM (inactive) | > 100 µM (inactive) | 31.7 µM (inactive) |  | > 100 µM (inactive) | 24.8 µM (inactive) | 11.9 µM (inactive) | > 100 | 
CCOC(=O)NC(C(F)(F)F)(C(F)(F)F)P(=O)(OC(C)C)OC(C)C | > 100 µM (inactive) |  | > 100 µM (inactive) | > 100 µM (inactive) | > 100 µM (inactive) | > 100 µM (inactive) |  | > 100 µM (inactive) | > 100 µM (inactive) |  | > 100 µM (inactive) | > 100 µM (inactive) | > 100 µM (inactive) | > 100 µM (inactive) | > 100 µM (inactive) | > 100 µM (inactive) | > 100 | 
Cc1ccc(S(=O)(=O)n2cc(-c3cc(C(F)(F)F)ccn3)c3cc(Br)ccc32)cc1 |  | 16.3 µM (inactive) | 29.6 µM (inactive) | 16.4 µM (inactive) | 38.9 µM (inactive) | 28.1 µM (inactive) | 27.7 µM (inactive) | 46.2 µM (inactive) | 14.5 µM (inactive) |  | 50 µM (inactive) | 17.9 µM (inactive) | 17.1 µM (inactive) | 20.7 µM (inactive) | 3.07 µM (inactive) | 15.5 µM (inactive) | 21.9 | 18.2 µM (inactive)
CC(=O)OCCCC(NC(=O)OC(C)(C)C)C(=O)NC(CCCOC(C)=O)C(=O)NC(Cc1ccc([N+](=O)[O-])cc1)C(=O)NCC(=O)OCc1ccccc1 (stereo not given) | 18.5 µM (inactive) | 18.5 µM (inactive) | 18.3 µM (inactive) | 18.9 µM (inactive) | 15.6 µM (inactive) | 13.1 µM (inactive) | 12.9 µM (inactive) | 17.3 µM (inactive) | 14.3 µM (inactive) | 18.1 µM (inactive) | 15.8 µM (inactive) | 11.9 µM (inactive) | 15.3 µM (inactive) | 17.9 µM (inactive) | 15.4 µM (inactive) | 26.1 µM (inactive) | 15.1 | 
Oc1cccc(-c2ccc3c4c2O[C@H]2c5[nH]c6ccccc6c5C[C@@]5(O)[C@@H](C3)N(CC3CC3)CC[C@]425)c1 | 10 µM (inactive) | 1.75 µM (inactive) | 13.5 µM (inactive) |  | 1.98 µM (inactive) | 1.8 µM (inactive) | 1.7 µM (inactive) | 1.72 µM (inactive) | 2.3 µM (inactive) |  | 1.96 µM (inactive) | 1.82 µM (inactive) | 1.68 µM (inactive) |  | 2.46 µM (inactive) |  | 1.67 | 
CC(C(=O)O)c1ccc(-n2nnc3c(=O)[nH][nH]c(=O)c32)cc1 (stereo not given) | > 100 µM (inactive) | > 100 µM (inactive) | > 100 µM (inactive) | > 100 µM (inactive) | > 100 µM (inactive) | > 100 µM (inactive) | > 100 µM (inactive) | > 100 µM (inactive) | > 100 µM (inactive) |  | > 100 µM (inactive) | > 100 µM (inactive) |  | > 100 µM (inactive) | > 100 µM (inactive) |  | > 100 | 
